What was measured:
HDAC1 = biological target: T1, HDAC1 (Homo sapiens, UniProt Q13547); assay: Inhibition of HDAC1 activity (HDAC1 fluorimetric drug discovery assay kit); assay type: biochemical; settings: test concentrations 100, 1000 and 10000 nM; 37° C., 60 minutes
T1 construct: purchased Enzolifesciences BML-AK511
Experimental: (§1) Assays were performed using a HDAC1 fluorimetric drug discovery assay kit (Enzolifesciences: BML-AK511) and a HDAC6 human recombinant (Calbiochem: 382180). The assay mixture of the kit was treated with a test compound at concentrations of 100, 1000 and 10000 nM for HDAC1 assay and concentrations of 0.1, 1, 10, 100 and 1000 nM for HDAC6 assay. The treated assay mixture was allowed to react at 37° C. for 60 minutes, and then was treated with a developer and allowed to stand at 37° C. for 30 minutes, followed by quantification of the fluorescence.

HDAC6 human recombinant = biological target: T2, HDAC6 human recombinant (Homo sapiens, UniProt Q9UBN7); assay: Inhibition of HDAC6 activity (fluorimetric assay); assay type: biochemical; settings: test concentrations 0.1, 1, 10, 100 and 1000 nM; 37° C., 60 minutes
T2 construct: purchased Calbiochem 382180
T2 sequence (Q9UBN7 1-1215): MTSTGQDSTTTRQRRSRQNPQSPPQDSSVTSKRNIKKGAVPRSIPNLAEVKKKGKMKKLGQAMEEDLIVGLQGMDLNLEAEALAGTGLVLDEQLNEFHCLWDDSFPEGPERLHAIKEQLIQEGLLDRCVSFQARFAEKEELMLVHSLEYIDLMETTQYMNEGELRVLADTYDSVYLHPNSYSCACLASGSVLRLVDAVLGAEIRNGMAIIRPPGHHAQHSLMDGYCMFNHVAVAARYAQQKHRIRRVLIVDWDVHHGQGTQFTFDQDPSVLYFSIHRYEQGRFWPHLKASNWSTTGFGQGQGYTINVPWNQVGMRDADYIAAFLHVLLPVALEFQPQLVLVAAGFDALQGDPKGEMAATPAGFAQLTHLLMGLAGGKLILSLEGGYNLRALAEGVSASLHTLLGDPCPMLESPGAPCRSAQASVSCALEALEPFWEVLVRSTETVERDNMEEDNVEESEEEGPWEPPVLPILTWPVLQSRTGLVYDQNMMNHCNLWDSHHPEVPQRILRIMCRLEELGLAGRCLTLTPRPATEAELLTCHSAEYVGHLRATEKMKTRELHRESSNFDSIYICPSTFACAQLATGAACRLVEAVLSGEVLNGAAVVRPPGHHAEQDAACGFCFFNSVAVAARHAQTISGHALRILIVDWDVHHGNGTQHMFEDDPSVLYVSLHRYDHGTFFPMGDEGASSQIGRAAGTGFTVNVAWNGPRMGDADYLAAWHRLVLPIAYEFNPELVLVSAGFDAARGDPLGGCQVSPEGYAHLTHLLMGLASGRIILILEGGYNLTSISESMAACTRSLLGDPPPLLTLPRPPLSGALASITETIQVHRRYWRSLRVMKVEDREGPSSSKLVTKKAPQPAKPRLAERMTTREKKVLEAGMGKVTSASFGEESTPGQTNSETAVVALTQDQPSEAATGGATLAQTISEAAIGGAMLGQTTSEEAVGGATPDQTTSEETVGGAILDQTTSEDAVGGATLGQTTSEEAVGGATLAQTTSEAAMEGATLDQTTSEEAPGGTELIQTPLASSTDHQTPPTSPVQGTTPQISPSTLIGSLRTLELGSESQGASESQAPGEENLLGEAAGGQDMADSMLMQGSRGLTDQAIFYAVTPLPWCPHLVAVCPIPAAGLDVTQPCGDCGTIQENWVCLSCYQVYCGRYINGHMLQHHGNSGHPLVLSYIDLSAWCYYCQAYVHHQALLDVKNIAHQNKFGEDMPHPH
Experimental: as §1

T1 sequence (Q13547 whole entry): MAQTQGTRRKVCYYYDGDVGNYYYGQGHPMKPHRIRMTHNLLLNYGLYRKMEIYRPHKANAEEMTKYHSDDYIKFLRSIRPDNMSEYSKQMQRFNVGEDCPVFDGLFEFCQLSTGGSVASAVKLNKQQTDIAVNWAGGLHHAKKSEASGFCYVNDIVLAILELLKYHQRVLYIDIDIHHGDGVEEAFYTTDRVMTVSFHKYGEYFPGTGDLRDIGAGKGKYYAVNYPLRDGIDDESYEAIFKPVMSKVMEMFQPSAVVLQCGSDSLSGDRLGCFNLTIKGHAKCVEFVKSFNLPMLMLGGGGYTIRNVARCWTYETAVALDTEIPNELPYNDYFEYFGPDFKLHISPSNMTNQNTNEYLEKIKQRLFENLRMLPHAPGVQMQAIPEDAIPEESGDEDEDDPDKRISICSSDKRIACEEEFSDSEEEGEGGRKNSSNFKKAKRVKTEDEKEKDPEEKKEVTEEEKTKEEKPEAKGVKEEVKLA

Row | Structure (SMILES) | IC50 (HDAC1) [nM] | IC50 (HDAC6 human recombinant) [nM]
1 | CC(C)(C)OC(=O)NC1CCN(c2cnc3c(ccn3Cc3ccc(C(=O)NO)cc3)c2)CC1 [Compound 809, tert-butyl (1-(1-(4-(hydroxycarbamoyl)benzyl)-1H-pyrrolo[2,3-b]pyridin-5-yl)piperidin-4-yl)carbamate] | 3720 | 30
2 | CN1CCN(c2ccccc2CN2CCC(c3cnc4c(ccn4Cc4ccc(C(=O)NO)cc4)c3)CC2)CC1 [Compound 883, N-hydroxy-4-((5-(1-(2-(4-methylpiperzin-1-yl)benzyl)piperidin-4-yl)-1H-pyrrolo[2,3-b]pyridin-1-yl)methyl)benzamide] | 2090 | 2.1
3 | O=C(NO)c1ccc(Cn2ccc3c(-c4ccccc4)ccnc32)cc1 [Compound 656, N-hydroxy-4-((4-phenyl-1H-pyrrolo[2,3-b]pyridin-1-yl)methyl)benzamide] | 1350 | 16
4 | O=C(NO)c1ccc(Cn2ccc3cc(C4=CCCCC4)cnc32)cc1 [Compound 648, 4-((5-(cyclohex-1-en-1-yl)-1H-pyrrolo[2,3-b]pyridin-1-yl)methyl)-N-hydroxybenzamide] | 3550 | 18
5 | CC(C)(O)CN1C2CCC1CC(c1ccnc3c1ccn3Cc1ccc(C(=O)NO)cc1)C2 (centres unmarked) [Compound 930, N-hydroxy-4-((4-(8-(2-hydroxy-2-methylpropyl)-8-aza-bicyclo[3.2.1]octan-3-yl)-1H-pyrrolo[2,3-b]pyridin-1-yl)methyl)benzamide] | 250 | 1.7
6 | O=C(NO)c1ccc(Cn2ccc3c(N4CCC5(CC4)CN(Cc4cccnc4)C5)ccnc32)cc1 [Compound 1024, N-hydroxy-4-((4-(2-(pyridin-3-ylmethyl)-2,7-diazaspiro[3.5]nonan-7-yl)-1H-pyrrolo[2,3-b]pyridin-1-yl)methyl)benzamide] | 190 | 1.8
7 | Cn1ncc2ccc(-c3cnc4c(ccn4Cc4ccc(C(=O)NO)cc4)c3)cc21 [Compound 685, N-hydroxy-4-((5-(1-methyl-1H-indazol-6-yl)-1H-pyrrolo[2,3-b]pyridin-1-yl)methyl)benzamide] | 790 | 6
8 | CC(C)(C)OC(=O)N1CCN(c2ccnc3c2ccn3Cc2ccc(C(=O)NO)cc2)CC1 [Compound 212] | 890 | 14
9 | O=C(NO)c1ccc(Cn2ccc3cc(C4CCN(Cc5ccccc5)CC4)cnc32)cc1 [Compound 804, 4-((5-(1-benzylpiperidin-4-yl)-1H-pyrrolo[2,3-b]pyridin-1-yl)methyl)-N-hydroxybenzamide] | 1980 | 58
10 | Nc1cccc(-c2cnc3c(ccn3Cc3ccc(C(=O)NO)cc3)c2)c1 [Compound 690, 4-((5-(3-aminophenyl)-1H-pyrrolo[2,3-b]pyridin-1-yl)methyl)-N-hydroxybenzamide] | 2310 | 12
11 | O=C(NO)c1ccc(Cn2ccc3cc(C4CCN(Cc5noc(C(F)(F)F)n5)CC4)cnc32)cc1 [Compound 845, N-hydroxy-4-((5-(1-((5-(trifluoromethyl)-1,2,4-oxadiazol-3-yl)methyl)piperidin-4-yl)-1H-pyrrolo[2,3-b]pyridin-1-yl)methyl)benzamide] | 300 | 1.2
12 | CC(C)CN1CCC(c2cnc3c(ccn3Cc3ccc(C(=O)NO)cc3)c2)CC1 [Compound 863, N-hydroxy-4-((5-(1-isobutylpiperidin-4-yl)-1H-pyrrolo[2,3-b]pyridin-1-yl)methyl)benzamide] | 1120 | 11.5
13 | COc1cccc(CN2CCN(c3ccnc4c3ccn4Cc3ccc(C(=O)NO)cc3)CC2)c1 [Compound 846, N-hydroxy-4-((4-(4-(3-methoxybenzyl)piperazin-1-yl)-1H-pyrrolo[2,3-b]pyridin-1-yl)methyl)benzamide] | 1410 | 5.7
14 | O=C(NO)c1ccc(Cn2ccc3cc(C4CCN(Cc5ccc(C(F)(F)F)cc5)CC4)cnc32)cc1 [Compound 872, N-hydroxy-4-((5-(1-(4-(trifluoromethyl)benzyl)piperidin-4-yl)-1H-pyrrolo[2,3-b]pyridin-1-yl)methyl)benzamide] | 6340 | 165
15 | O=C(NO)c1ccc(Cn2ccc3cc(-c4ccccc4)cnc32)cc1 [Compound 645, N-hydroxy-4-((5-phenyl-1H-pyrrolo[2,3-b]pyridin-1-yl)methyl)benzamide] | 3050 | 17
16 | CC(C)(F)C(=O)N1CCN(c2cnc3c(ccn3Cc3ccc(C(=O)NO)cc3)c2)CC1 [Compound 855, 4-((5-(4-(2-fluoro-2-methylpropanoyl)piperazin-1-yl)-1H-pyrrolo[2,3-b]pyridin-1-yl)methyl)-N-hydroxybenzamide] | 250 | 3.5
17 | CC(C)(F)CN1CCN(Cc2ccc(-c3ccnc4c3ccn4Cc3ccc(C(=O)NO)cc3)cc2)CC1 [Compound 763, 4-((4-(4-((4-(2-fluoro-2-methylpropyl)piperazin-1-yl)methyl)phenyl)-1H-pyrrolo[2,3-b]pyridin-1-yl)methyl)-N-hydroxybenzamide] | 4200 | 300
18 | CN1CCN(Cc2ccc(CN3CCC(c4cnc5c(ccn5Cc5ccc(C(=O)NO)cc5)c4)CC3)cc2)CC1 [Compound 877, N-hydroxy-4-((5-(1-(4-((4-methylpiperazin-1-yl)methyl)benzyl)piperidin-4-yl)-1H-pyrrolo[2,3-b]pyridin-1-yl)methyl)benzamide] | 770 | 8.7
19 | CC(C)(O)CN1CC2(CCN(c3ccnc4c3ccn4Cc3ccc(C(=O)NO)cc3)CC2)C1 [Compound 1025, N-hydroxy-4-((4-(2-(2-hydroxy-2-methylpropyl)-2,7-diazaspiro[3.5]nonan-7-yl)-1H-pyrrolo[2,3-b]pyridin-1-yl)methyl)benzamide] | 170 | 1.1
20 | O=C(NO)c1ccc(Cn2ccc3c(C4CCN(Cc5cccnc5)CC4)ccnc32)cc1 [Compound 1014, N-hydroxy-4-((4-(1-(pyridin-3-ylmethyl)piperidin-4-yl)-1H-pyrrolo[2,3-b]pyridin-1-yl)methyl)benzamide] | 670 | 8.5
21 | CC(C)(F)C(=O)N1CCN(c2ccnc3c2ccn3Cc2ccc(C(=O)NO)cc2)CC1 [Compound 856, 4-((4-(4-(2-fluoro-2-methylpropanoyl)piperazin-1-yl)-1H-pyrrolo[2,3-b]pyridin-1-yl)methyl)-N-hydroxybenzamide] | 80 | 2.3
22 | CC(C)(C)OC(=O)N1CCN(c2cnc3c(ccn3Cc3ccc(C(=O)NO)cc3)c2)CC1 [Compound 746, tert-butyl 4-(1-(4-(hydroxycarbamoyl)benzyl)-1H-pyrrolo[2,3-b]pyridine-5-yl)piperazine-1-carboxylate] | 1960 | 22
23 | CN1CCN(Cc2cccc(-c3ccnc4c3ccn4Cc3ccc(C(=O)NO)cc3)c2)CC1 [Compound 799, N-hydroxy-4-((4-(3-((4-methylpiperazin-1-yl)methyl)phenyl)-1H-pyrrolo[2,3-b]pyridin-1-yl)methyl)benzamide] | 570 | 3.8
24 | CC(C)(F)C(=O)N1CCC(c2cnc3c(ccn3Cc3ccc(C(=O)NO)cc3)c2)CC1 [Compound 854, 4-((5-(1-(2-fluoro-2-methylpropanoyl)piperidin-4-yl)-1H-pyrrolo[2,3-b]pyridin-1-yl)methyl)-N-hydroxybenzamide] | 350 | 5
25 | CC(C)(C)OC(=O)N1CC=C(c2cnc3c(ccn3Cc3ccc(C(=O)NO)cc3)c2)CC1 [Compound 692, tert-butyl 4-(1-(4-(hydroxycarbamoyl)benzyl)-1H-pyrrolo[2,3-b]pyridin-5-yl)-5,6-dihydropyridine-1(2H)-carboxylate] | 3430 | 8

From US9650379B2 (CHONG KUN DANG PHARMACEUTICAL CORP., priority 2013, dated 2017)
